“Also recorded” adds a separate entry of the source. Where two headings read alike, the source gives them in different places.
Target: T1, hASIC1a (Homo sapiens, UniProt P78348)
T1 sequence (P78348 1-528): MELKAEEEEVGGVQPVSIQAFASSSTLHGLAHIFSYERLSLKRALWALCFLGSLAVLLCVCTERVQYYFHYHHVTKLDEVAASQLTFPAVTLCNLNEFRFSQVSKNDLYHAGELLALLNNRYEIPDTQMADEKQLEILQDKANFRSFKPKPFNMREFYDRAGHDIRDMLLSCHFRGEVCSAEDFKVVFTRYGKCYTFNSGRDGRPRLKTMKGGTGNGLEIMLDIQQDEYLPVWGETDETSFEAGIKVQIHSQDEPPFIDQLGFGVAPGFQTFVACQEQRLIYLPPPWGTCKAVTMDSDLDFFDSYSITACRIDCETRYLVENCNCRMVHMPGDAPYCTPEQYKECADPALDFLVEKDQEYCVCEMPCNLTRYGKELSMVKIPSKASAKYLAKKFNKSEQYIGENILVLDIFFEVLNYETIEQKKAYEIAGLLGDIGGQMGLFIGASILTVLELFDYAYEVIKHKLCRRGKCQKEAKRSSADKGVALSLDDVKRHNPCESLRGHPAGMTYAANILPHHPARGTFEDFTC
Test: Whole-cell patch clamp of acid-induced currents in cells transfected with hASIC1a
Type: cell-based
Design: expressed in transfected cells
Settings: for effect on acid-induced hASIC1a inward current (FIGS. 2A, 2B, 3C): whole-cell patch clamp, dose-inhibition curves
Procedure: Another example of an in vitro assessment method consists of using mammalian heterologous expression systems, which are known to those skilled in the art, and include a variety of mammalian cell lines such as COS, HEK, e.g., HEK293 and/or CHO, cells. Cell lines are transfected with gated ion channel(s) and used to perform electrophysiology as follows:
All experiments are performed at room temperature (20-25° C.) in voltage clamp using conventional whole cell patch clamp methods (Neher, E., et al. (1978) Pfluegers Arch 375:219-228).
The amplifier used is the EPC-9 (HEKA-electronics, Lambrect, Germany) run by a Macintosh G3 computer via an ITC-16 interface. Experimental conditions are set with the Pulse-software accompanying the amplifier. Data is low pass filtered and sampled directly to hard-disk at a rate of 3 times the cut-off frequency.
Pipettes are pulled from borosilicate glass using a horizontal electrode puller (Zeitz-lnstrumente, Augsburg, Germany). The pipette resistances are 2-3 MOhms in the salt solutions used in these experiments. The pipette electrode is a chloridized silver wire, and the reference is a silver chloride pellet electrode (In Vivo Metric, Healdsburg, USA) fixed to the experimental chamber. The electrodes are zeroed with the open pipette in the bath just prior to sealing.
Coverslips with the cells are transferred to a 15 μl experimental chamber mounted on the stage of an inverted microscope (IMT-2, Olympus) supplied with Nomarski optics. Cells are continuously superfused with extracellular saline at a rate of 2.5 ml/min. After giga-seal formation, the whole cell configuration is attained by suction. The cells are held at a holding voltage of −60 mV and at the start of each experiment the current is continuously measured for 45 s to ensure a stable baseline. Solutions of low pH (<7) are delivered to the chamber through a custom-made gravity-driven flowpipe, the tip of which is placed approximately 50 μm from the cell. Application is triggered when the tubing connected to the flowpipe is compressed by a valve controlled by the Pulse-software. Initially, low pH (in general, pH 6.5) is applied for 5 s every 60 s. The sample interval during application is 550 μs. After stable responses are obtained, the extracellular saline as well as the low-pH solution are switched to solutions containing the compound to be tested. The compound is present until responses of repeatable amplitude are achieved. Current amplitudes are measured at the peak of the responses, and effect of the compounds is calculated as the amplitude at compound equilibrium divided by the amplitude of the current evoked by the pulse just before the compound was included.
The following salt solutions are used: extracellular solution (mM): NaCl (140), KCl (4), CaCl2 (2), MgCl2 (4), HEPES (10, pH 7.4); intracellular solution (mM): KCl (120), KOH (31), MgCl2 (1.785), EGTA (10), HEPES (10, pH 7.2). In general, compounds for testing are dissolved in 50% DMSO at 500 fold the highest concentration used.
CHO cells were transfected with hASIC1a and used to perform full dose-inhibition curves with Compound B, and Compound R. Results are expressed as a fraction of the control peak current obtained in the absence of the test substance.

[1] = Table H, read-out: IC50 (μM) Patch Clamp (h1a)

IC50 [1] [µM] | IC50 (patch clamp (PC), Tables A-F, h1a printed in some cells only, read-out: Biological Data (IC50 uM) h1a (PC)) [µM] | reversibility of the effect on hASIC1a current (washout of the compound after 1 μM) | Structure (SMILES) | effect on acid-induced hASIC1a inward current (FIGS. 2A, 2B, 3C) | selectivity hASIC1a versus hASIC3 (patch clamp, CHO cells, FIG. 3)
> 10 |  |  | COc1ccc(C(=O)CN2CCN(c3cc(C)nc4ccccc34)CC2)cc1 [Compound A, 1-(4-methoxy-phenyl)-2-[4-(2-methyl-quinolin-4-yl)-piperazin-1-yl]-ethanone] |  | 
 |  |  | Fc1cccc2c(OC3CCN(Cc4ccccc4)CC3)cc(C(F)(F)F)nc12 [Compound B, 4-(1-benzyl-piperidin-4-yloxy)-8-fluoro-2-trifluoromethyl-quinoline] | dose-dependently reduce hASIC1a activity; also recorded: dose-dependent reduction | 
3.8 | 2 to 10 | fully reversed upon washout | Cc1cc(OC2CCN(Cc3ccccc3)CC2)c2ccccc2n1 [Compound R, 4-(1-benzyl-piperidin-4-yloxy)-2-methyl-quinoline] | dose-dependently reduce hASIC1a activity; also recorded: reduced the hASIC1a pH-evoked response in a dose-dependent manner; also recorded: dose-dependent reduction | selective against specific ASIC subunits; also recorded: selective for hASIC1a over hASIC3

From patent US20070197509A1, “Compositions and methods for modulating gated ion channels” (PainCeptor Pharma Corporation, priority 2005, published 2007)
